Results from PubChem BioAssay AID463206 (Broad Institute, 2010).
Activity calls are given as the source filed them.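 Rule for the calls: active = caspase luminescence falls with dose and the half-maximal concentration AC50 from the fitted curve is at or below a set limit; inconclusive = flat fit at 30 to 70% signal loss, or invalid fit; inactive = AC50 above the limit, or signal rises instead.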

tested on: INS-1E cytokine-induced caspase-3/7, Caspase-Glo luminescence, 48 h; test: inhibitors of cytokine-induced caspase-3/7 activity, dose response, orthogonal assay for beta-cell apoptosis protection project, INS-1E rat cells, luminescence (AID 463206)

| SMILES | AC50 |
| --- | --- |
| CC1CCc2c(sc3nc(C4CC4)nc(N4CCN(C(=O)c5ccco5)CC4)c23)C1 (stereo not given) | > 26 µM (inactive) |
| Oc1cccc(/C=N/NC(=S)Nc2cccnc2)c1O | > 26 µM (inactive) |
| COc1cc(NC(=O)c2ccc([N+](=O)[O-])o2)ccc1NC(=O)c1cccs1 | > 26 µM (inactive) |
| CCOC(=O)c1cnc(-n2nc(C)cc2C)nc1NCc1ccccc1 | > 26 µM (inactive) |
| O=C(CN1CC[n+]2c(-c3cccs3)csc21)c1ccc(-c2ccccc2)cc1 | > 26 µM (inactive) |
| COc1ccc([N+](=O)[O-])c(S(=O)(=O)c2ccc(Cl)cc2)n1 | > 26 µM (inactive) |
| O=c1c2ccccc2nc(COc2ccccc2)n1/N=C/c1cc([N+](=O)[O-])ccc1O | > 26 µM (inactive) |
| O=C(CC1C(=O)NCCN1Cc1ccc(-c2ccccc2)cc1)NC1CCC1 (stereo not given) | > 26 µM (inactive) |
| CCC(C)Sc1ccc(-c2nc3ccc(C)cn3c2NCc2ccccc2)cc1OC (stereo not given) | > 26 µM (inactive) |
| CCN(CC)c1ccc(/C=N/NC(=O)c2cccc(S(=O)(=O)Nc3ccccc3OC)c2)c(O)c1 | > 26 µM (inactive) |
| COC(=O)[C@H](CC(C)C)N(Cc1ccccc1)S(=O)(=O)N(Cc1ccc(OC)cc1)[C@@H](CC(C)C)C(=O)OC | > 26 µM (inactive) |
| Cc1cc(/C=N/n2cnnc2)c(C)n1-c1ccc(OCc2ccc(Cl)cc2Cl)cc1 | > 26 µM (inactive) |
| CC1(C)Cc2c(c(N3CCOCC3)nc3sc4c(NN)ncnc4c23)CS1 | > 26 µM (inactive) |
| O=C(CC(O)(C(F)(F)F)C(F)(F)F)Nc1ccc(Cl)c(Cl)c1 | > 26 µM (inactive) |
| O=C1/C(=C/c2ccc(N3CCOCC3)o2)SC(=Nc2ccccc2)N1CCc1c[nH]c2ccccc12 | > 26 µM (inactive) |
| COC(=O)c1cccc(NC(=O)Nc2ccc(Cl)c(Cl)c2)c1 | > 26 µM (inactive) |
| Cc1ccc(C(=O)O/N=C/c2c(N3CCOCC3)n(C)c3ccccc23)cc1 | > 26 µM (inactive) |
| C(/CCc1ccccc1)=N\Nc1nc2ccccc2[nH]1 | > 26 µM (inactive) |
| O=C(Nc1cccc(Cl)c1)Nc1nnc(CSCCOc2ccc(Cl)cc2)s1 | > 26 µM (inactive) |
| CC(C)Nc1ccc(Nc2ccccc2)cc1 | > 26 µM (inactive) |
| Cc1cccc(CNc2ncnc3ccc(-c4ccc5c(c4)OCCO5)cc23)c1 | > 26 µM (inactive) |
| O=C(Nc1nc(-c2ccccn2)cs1)Nc1ccc(F)cc1F | > 26 µM (inactive) |
| Cc1nn(-c2nc3ccccc3[nH]2)c(=O)c2ccccc12 | > 26 µM (inactive) |

| SMILES | AC50 |
| --- | --- |
| COc1ccc(Cn2cc3c(-c4ccc(F)cc4)nnc-3c3cc(OC)c(OC)cc32)cc1 | 12.9 µM |
| O=C(O)c1ccc(S(=O)(=O)/N=C2\C=C(Nc3ccccc3F)C(=O)c3ccccc32)cc1 | > 26 µM (inactive) |
| O=C(N/N=C/c1sc(N2CCOCC2)nc1-c1ccccc1)c1cccc(S(=O)(=O)N2CCCC2)c1 | > 26 µM (inactive) |
| CC1=C(CC(=O)c2ccc(Cl)cc2)C(=O)c2ccccc2C1=O | > 26 µM (inactive) |
| COc1ccc(C(NC(C)=O)c2cc(Cl)c3cccnc3c2O)cc1OC (stereo not given) | > 26 µM (inactive) |
| O=C(CCSc1nc2ccccc2s1)N/N=C/c1c(O)ccc2ccccc12 | > 26 µM (inactive) |
| Cc1ccccc1NC1=C/C(=N\S(=O)(=O)c2ccc(C(=O)O)cc2)c2ccccc2C1=O | > 26 µM (inactive) |
| CC1(C(=O)OCC(=O)N2c3ccccc3Sc3ccccc32)CC1(Cl)Cl (stereo not given) | > 26 µM (inactive) |
| CC(NC(=O)C1CCC(C(=O)NC(C)c2ccccc2)CC1)c1ccccc1 (stereo not given) | > 26 µM (inactive) |
| CCOc1ccc(Nc2nc(Cc3nnc(SCC(=O)c4ccc(C)c(C)c4)o3)cs2)cc1 | > 26 µM (inactive) |
| COc1cc(Br)cc(/C=N/NC(=O)Cc2ccc(C(F)(F)F)cc2[N+](=O)[O-])c1O | > 26 µM (inactive) |
| Cc1cc(C)nc(N/N=C/c2cc(Br)ccc2O)n1 | > 26 µM (inactive) |
| Cc1ccc2c(c1)Sc1c(ccc3ccccc13)N2 | > 26 µM (inactive) |
| COc1ccccc1-n1c(=O)oc2ccc(Cl)cc2c1=O | > 26 µM (inactive) |
| COc1ccc(Cn2c(SCc3ccc(C)cc3)nc3cc(OC)c(OC)cc3c2=N)cc1Cl | > 26 µM (inactive) |
| O=C(c1cc2sccc2n1Cc1ccccc1)N1CCN(c2nc3ccccc3s2)CC1 | > 26 µM (inactive) |
| Cc1c(C(=O)N(Cc2ccccc2)C(C)C)oc2ccc(S(=O)(=O)N3CCOCC3)cc12 | > 26 µM (inactive) |
| O=C(O)c1ccc(/C=C2\SC(=S)N(Nc3ccccc3)C2=O)cc1 | > 26 µM (inactive) |
| COC(=O)C1=C(C)N(Cc2ccccc2)C(=NCc2ccccc2)N[C@H]1c1cccc(C(F)(F)F)c1 | > 26 µM (inactive) |
| FC(F)Sc1ccc(N=C2NN=C(c3ccc4c(c3)OCCO4)CS2)cc1 | > 26 µM (inactive) |
| Cn1nnnc1N=N/C(=N/Nc1ccccc1)c1ccccc1 | > 12 µM (inactive) |
| Cc1cccc2c(C(=O)N3CCN(c4ccccn4)CC3)cc(-c3cccc(Br)c3)nc12 | > 26 µM (inactive) |
